ChEMBL document CHEMBL1201862, “PubChem BioAssay data set” (2004)
Active and inactive are the calls of the source.

Columns and labels:
Type in all cases: functional
[1] = molecular target: Ribosomal protein S6 kinase alpha-3 (Homo sapiens, UniProt P51812);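 also: measured within a kinome-wide profiling panel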
[2] = molecular target: Protein kinase C delta type (Homo sapiens, UniProt Q05655)
[3] = molecular target: Serine/threonine-protein kinase Chk2 (Homo sapiens, UniProt O96017);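 also: CHEK2 entry within a kinome-wide screening panel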
Serine/threonine-protein kinase Chk2, sequence (O96017 whole entry): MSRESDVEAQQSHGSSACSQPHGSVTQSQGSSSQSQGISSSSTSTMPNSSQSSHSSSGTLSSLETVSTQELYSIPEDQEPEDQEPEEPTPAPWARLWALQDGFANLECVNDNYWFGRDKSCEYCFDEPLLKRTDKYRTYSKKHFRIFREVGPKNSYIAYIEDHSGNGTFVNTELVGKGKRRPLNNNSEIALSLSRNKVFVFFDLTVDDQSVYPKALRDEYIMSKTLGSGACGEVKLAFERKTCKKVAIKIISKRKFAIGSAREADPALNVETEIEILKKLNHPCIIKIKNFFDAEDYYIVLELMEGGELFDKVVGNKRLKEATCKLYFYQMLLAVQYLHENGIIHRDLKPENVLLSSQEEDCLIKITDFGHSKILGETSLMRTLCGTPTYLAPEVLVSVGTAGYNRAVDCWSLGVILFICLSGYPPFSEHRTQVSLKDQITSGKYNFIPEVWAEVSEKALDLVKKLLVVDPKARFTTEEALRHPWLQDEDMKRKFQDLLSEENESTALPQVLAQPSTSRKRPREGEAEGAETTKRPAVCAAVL

[4] = molecular target: Tyrosine-protein kinase BTK (Homo sapiens, UniProt Q06187)
[5] = molecular target: Mitogen-activated protein kinase 9 (Homo sapiens, UniProt P45984);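 also: value from a kinome panel profiling assay, MAPK9 panel entry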
Mitogen-activated protein kinase 9, sequence (P45984 whole entry): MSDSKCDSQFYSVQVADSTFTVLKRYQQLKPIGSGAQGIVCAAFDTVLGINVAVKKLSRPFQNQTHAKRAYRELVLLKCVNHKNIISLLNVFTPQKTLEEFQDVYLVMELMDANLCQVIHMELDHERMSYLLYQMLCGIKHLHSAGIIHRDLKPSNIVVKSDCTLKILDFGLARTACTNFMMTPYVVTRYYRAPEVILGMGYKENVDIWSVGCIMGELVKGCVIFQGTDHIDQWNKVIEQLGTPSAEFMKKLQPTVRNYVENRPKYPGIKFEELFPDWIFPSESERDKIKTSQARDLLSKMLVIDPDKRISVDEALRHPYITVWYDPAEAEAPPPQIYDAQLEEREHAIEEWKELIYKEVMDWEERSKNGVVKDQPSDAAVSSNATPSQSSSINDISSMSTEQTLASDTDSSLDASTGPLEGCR

[6] = molecular target: T1, Tyrosine-protein kinase ITK/TSK (Homo sapiens, UniProt Q08881);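 also: affinity for ITK measured as one member of a broad kinase panel profiling binding across the kinome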
T1 sequence (Q08881 whole entry): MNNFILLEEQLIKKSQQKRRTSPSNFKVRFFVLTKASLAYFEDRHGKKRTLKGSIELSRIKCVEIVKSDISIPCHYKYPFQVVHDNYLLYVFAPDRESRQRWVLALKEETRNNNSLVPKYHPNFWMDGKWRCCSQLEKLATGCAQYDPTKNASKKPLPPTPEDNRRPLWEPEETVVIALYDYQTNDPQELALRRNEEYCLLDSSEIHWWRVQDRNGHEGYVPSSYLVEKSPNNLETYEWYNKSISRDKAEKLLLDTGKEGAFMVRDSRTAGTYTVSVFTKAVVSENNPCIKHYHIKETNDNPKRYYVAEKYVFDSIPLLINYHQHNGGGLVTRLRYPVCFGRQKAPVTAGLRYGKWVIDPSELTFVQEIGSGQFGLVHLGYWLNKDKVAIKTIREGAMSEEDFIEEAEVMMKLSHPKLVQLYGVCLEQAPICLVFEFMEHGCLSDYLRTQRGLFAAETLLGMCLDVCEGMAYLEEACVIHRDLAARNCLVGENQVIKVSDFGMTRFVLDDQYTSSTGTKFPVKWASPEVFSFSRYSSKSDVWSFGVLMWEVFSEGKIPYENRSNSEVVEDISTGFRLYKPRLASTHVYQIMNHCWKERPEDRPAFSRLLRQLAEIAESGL

[7] = molecular target: Homeodomain-interacting protein kinase 2 (Homo sapiens, UniProt Q9H2X6);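 also: measured within a kinome-wide kinase profiling panel, HIPK2 being one panel member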
Homeodomain-interacting protein kinase 2, sequence (Q9H2X6 whole entry): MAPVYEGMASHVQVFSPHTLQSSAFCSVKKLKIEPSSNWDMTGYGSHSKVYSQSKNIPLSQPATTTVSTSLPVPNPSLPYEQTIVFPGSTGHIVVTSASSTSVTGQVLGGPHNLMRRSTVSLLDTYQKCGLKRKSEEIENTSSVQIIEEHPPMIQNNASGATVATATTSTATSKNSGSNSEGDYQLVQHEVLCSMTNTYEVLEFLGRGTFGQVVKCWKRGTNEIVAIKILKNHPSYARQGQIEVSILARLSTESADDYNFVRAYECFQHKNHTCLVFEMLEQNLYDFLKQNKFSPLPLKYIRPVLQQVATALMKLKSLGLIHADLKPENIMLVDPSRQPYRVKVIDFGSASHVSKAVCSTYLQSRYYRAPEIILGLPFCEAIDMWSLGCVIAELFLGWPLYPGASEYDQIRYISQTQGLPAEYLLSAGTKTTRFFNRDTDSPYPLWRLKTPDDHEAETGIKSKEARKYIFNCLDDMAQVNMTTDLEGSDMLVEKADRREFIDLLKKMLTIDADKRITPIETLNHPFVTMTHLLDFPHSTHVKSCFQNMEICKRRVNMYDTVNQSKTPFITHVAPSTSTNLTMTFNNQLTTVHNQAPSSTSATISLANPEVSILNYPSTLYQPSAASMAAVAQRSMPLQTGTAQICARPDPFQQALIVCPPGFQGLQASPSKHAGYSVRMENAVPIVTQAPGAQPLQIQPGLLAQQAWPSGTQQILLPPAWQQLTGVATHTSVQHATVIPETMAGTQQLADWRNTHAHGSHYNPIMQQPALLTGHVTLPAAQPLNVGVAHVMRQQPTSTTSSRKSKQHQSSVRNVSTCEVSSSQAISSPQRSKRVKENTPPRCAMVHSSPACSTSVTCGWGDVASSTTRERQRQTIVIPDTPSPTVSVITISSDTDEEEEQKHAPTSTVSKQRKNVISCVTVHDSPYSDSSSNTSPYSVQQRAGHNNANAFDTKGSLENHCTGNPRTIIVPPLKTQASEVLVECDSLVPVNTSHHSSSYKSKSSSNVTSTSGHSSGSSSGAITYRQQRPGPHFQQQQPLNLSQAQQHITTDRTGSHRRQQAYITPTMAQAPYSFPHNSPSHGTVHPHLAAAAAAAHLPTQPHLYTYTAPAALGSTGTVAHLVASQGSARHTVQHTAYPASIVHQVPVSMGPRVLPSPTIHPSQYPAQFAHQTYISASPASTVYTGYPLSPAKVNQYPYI

[8] = molecular target: T2, Receptor-type tyrosine-protein kinase FLT3 (Homo sapiens, UniProt P36888);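 also: FLT3 was tested as one member of a kinome-wide kinase panel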
T2 sequence (P36888 whole entry): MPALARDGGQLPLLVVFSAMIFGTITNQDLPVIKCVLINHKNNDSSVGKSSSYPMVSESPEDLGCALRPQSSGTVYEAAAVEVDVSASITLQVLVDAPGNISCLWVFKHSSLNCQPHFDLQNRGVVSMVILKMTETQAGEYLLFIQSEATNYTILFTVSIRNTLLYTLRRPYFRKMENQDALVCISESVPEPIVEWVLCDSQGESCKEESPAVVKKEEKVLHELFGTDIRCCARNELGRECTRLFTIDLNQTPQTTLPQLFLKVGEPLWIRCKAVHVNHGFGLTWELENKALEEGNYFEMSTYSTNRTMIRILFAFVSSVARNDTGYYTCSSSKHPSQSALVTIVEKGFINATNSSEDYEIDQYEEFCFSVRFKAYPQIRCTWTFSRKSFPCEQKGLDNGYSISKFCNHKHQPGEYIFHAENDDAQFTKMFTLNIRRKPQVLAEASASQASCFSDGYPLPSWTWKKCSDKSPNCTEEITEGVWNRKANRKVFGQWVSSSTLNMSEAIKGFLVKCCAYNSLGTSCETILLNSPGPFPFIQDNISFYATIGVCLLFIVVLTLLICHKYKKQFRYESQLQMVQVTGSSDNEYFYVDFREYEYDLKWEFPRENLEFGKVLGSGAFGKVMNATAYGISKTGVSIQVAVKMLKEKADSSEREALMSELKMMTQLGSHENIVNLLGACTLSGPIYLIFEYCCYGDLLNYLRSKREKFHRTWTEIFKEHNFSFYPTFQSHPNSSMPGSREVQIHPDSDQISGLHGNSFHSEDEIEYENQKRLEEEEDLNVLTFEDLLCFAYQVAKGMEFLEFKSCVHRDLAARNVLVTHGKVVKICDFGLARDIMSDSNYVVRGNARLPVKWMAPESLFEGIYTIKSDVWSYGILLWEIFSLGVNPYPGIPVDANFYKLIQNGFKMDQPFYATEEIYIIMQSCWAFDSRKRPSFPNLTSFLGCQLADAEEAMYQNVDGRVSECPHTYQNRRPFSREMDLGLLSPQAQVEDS

[9] = molecular target: Ephrin type-A receptor 2 (Homo sapiens, UniProt P29317);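 also: EPHA2 tested as one member of a kinome-wide kinase panel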
Ephrin type-A receptor 2, sequence (P29317 whole entry): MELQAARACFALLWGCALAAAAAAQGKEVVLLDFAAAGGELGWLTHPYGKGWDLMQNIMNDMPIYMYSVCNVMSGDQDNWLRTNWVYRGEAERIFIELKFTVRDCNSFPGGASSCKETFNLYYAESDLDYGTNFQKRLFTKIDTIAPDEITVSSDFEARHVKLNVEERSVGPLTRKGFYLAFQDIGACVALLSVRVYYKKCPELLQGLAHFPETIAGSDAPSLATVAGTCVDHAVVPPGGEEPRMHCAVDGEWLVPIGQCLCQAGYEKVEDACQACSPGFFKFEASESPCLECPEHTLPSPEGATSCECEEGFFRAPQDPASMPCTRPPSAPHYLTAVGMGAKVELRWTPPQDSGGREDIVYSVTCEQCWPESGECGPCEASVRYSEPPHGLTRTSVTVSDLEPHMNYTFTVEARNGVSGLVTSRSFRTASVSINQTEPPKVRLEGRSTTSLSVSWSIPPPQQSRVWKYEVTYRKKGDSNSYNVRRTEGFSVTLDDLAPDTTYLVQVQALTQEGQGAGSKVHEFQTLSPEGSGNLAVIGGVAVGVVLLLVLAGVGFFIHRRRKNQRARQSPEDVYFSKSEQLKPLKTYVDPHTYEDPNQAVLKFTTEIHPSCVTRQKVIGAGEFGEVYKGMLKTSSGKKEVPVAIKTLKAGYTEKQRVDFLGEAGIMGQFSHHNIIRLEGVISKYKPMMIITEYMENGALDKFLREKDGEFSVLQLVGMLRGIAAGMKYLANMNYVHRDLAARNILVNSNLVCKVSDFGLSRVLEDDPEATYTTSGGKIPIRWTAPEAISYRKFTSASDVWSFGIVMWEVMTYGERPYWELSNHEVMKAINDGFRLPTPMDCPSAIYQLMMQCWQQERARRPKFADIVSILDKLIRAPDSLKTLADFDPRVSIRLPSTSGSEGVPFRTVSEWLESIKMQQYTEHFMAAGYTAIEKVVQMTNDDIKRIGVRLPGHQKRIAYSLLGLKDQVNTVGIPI

[10] = molecular target: T3, 3-phosphoinositide-dependent protein kinase 1 (Homo sapiens, UniProt O15530);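 also: value comes from the Navigating the Kinome panel, PDPK1 member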
T3 sequence (O15530 whole entry): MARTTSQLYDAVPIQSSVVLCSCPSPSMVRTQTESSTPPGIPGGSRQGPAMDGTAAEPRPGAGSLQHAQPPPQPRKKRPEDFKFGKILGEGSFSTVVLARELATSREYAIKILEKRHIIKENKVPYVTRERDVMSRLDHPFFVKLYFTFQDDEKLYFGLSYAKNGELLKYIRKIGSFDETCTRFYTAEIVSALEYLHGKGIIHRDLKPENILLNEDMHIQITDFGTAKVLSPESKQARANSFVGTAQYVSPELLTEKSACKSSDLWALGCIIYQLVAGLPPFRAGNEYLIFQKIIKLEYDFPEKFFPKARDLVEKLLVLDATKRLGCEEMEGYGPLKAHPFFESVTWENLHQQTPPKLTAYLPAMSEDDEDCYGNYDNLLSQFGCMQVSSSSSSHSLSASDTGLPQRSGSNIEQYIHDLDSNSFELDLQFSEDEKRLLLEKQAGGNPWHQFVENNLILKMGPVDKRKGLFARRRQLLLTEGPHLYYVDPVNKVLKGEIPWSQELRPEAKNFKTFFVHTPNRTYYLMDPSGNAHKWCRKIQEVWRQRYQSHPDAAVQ

[11] = molecular target: Dual specificity tyrosine-phosphorylation-regulated kinase 1A (Homo sapiens, UniProt Q13627);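 also: measured against DYRK1A as one member of a broad kinome profiling panel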

Ribosomal protein S6 kinase alpha-3, sequence (P51812 whole entry): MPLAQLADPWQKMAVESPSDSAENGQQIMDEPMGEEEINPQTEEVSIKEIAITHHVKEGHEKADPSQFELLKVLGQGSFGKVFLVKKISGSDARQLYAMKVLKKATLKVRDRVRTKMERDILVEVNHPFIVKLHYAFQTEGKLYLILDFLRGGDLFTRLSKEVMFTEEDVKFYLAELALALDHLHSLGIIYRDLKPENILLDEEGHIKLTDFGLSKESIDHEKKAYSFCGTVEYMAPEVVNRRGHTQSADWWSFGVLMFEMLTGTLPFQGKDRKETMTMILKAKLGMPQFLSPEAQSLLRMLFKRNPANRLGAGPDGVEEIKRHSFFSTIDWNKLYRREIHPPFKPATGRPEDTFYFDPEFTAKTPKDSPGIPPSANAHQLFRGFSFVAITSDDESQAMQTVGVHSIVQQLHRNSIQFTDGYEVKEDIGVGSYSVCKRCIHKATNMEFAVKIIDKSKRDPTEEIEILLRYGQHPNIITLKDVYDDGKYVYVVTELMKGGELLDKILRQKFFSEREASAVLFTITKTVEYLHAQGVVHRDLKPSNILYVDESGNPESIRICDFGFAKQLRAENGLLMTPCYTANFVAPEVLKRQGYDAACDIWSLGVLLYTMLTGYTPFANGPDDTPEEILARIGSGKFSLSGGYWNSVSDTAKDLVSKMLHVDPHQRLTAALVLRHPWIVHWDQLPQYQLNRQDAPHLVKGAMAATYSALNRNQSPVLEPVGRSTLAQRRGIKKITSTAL
Protein kinase C delta type, sequence (Q05655 whole entry): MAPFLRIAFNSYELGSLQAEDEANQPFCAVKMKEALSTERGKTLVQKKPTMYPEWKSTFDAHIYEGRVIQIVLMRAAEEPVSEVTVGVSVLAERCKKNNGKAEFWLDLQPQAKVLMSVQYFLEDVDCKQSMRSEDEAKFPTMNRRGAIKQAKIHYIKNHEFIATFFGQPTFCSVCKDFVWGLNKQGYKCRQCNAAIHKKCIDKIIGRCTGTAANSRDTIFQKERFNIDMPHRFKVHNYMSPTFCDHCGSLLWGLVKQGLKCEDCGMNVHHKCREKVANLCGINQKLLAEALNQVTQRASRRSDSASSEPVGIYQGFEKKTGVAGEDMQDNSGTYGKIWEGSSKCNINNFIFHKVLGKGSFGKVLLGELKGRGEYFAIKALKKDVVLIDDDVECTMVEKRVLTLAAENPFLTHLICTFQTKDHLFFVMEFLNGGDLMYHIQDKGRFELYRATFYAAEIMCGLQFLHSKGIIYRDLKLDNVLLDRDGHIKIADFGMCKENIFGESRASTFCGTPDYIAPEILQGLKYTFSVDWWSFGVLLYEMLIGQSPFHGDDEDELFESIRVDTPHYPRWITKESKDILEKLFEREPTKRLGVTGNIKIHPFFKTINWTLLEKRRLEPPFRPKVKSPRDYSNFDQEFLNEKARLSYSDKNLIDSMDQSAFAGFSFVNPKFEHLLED

Row | SMILES | Ki [1] | pKi [1] | Ki [2] | pKi [2] | Ki [3] | pKi [3] | Ki [4] | Ki [5] | pKi [5] | Ki [6] | Ki [7] | pKi [7] | Ki [8] | Ki [9] | Ki [10] | Ki [11] | pKi [11]
1 | NC(=O)c1cc(-c2ccnc(N)n2)[nH]c1-c1ccc(Cl)cc1Cl | 50.1 nM (active) | 7.3 | 158 nM (active) | 6.8 | 1260 nM (active) | 5.9 | > 1260 nM (inactive) | 501 nM (active) | 6.3 | > 1580 nM (inactive) | 25.1 nM (active) | 7.6 | > 1260 nM (inactive) | > 3160 nM (inactive) | > 3980 nM (inactive) | 0.794 nM (active) | 9.1
2 | NC(COc1cncc(-c2ccc3c(c2)C(=Cc2ccco2)C(=O)N3)c1)Cc1c[nH]c2ccccc12 (stereo unspecified) |  |  | 20 nM (active) |  | 50.1 nM (active) |  | 501 nM (active) | 398 nM (active) |  | 1260 nM (active) | 39.8 nM (active) |  | 31.6 nM (active) | > 3160 nM (inactive) | 50.1 nM (active) | 2.51 nM (active) | 
3 | Cc1ccc(-n2nc(C(C)(C)C)cc2NC(=O)Nc2ccc(OCCN3CCOCC3)c3ccccc23)cc1 [DORAMAPIMOD] | > 3980 nM (inactive) |  |  |  |  |  |  |  |  | > 1580 nM (inactive) |  |  |  |  | > 3980 nM (inactive) | > 2000 nM (inactive) | 
